Reference: paper PMC10823733, “Promising antibacterial efficacy of arenicin peptides against the emerging opportunistic pathogen Mycobacterium abscessus” (Journal of Biomedical Science, 2024)
Like-named read-outs stand apart in the source and are kept apart here. Positions of bridges follow the written chain, without caps; N, C: chain ends. Non-standard residues stand in square brackets, D forms with d. Residues, ends and D or L forms follow the SMILES beside them. Abu = CC[C@H](N)C(=O)O

Experiments:
[1] = tested on: M. abscessus CIP 104536 T R variant; assay: microbe, parasite or virus in culture; assay type: cell-based, Mycobacterium abscessus
Protocol: (§1) Mycobacterium abscessus S and R strains (CIP 104536^ T) were grown in Middlebrook 7H9 medium supplemented with 0.05% (v/v) Tween 80, 0.2% (v/v) glycerol and 10% (v/v) oleic acid–albumin–dextrose–catalase (OADC enrichment; BD Difco) (7H9-S^OADC) at 37 °C under stirring (200 rpm). We used Ar-1 (RWC^3VYAYVRVRGVLVRYRRC^20W) and Ar-1-Abu, in which the cysteines in position 3 and 20 were replaced by alpha-amino-n-butyric acid (Abu) residues. We also tested Ar-2 (RWC^3VYAYVRIRGVLVRYRRC^20W), Ar-2-Abu (cysteines 3 and 20 replaced), Ar-3 (GFC^3WYVC^7VYRNGVRVC^16YRRC^20N), Ar-3-Abu (all four cysteines were replaced by Abu), Ar-3(3–20) (cysteines 7 and 16 replaced), and Ar-3(7–16) (cysteines 3 and 20 replaced). All arenicins and arenicin-Abu derivatives were obtained from GenScript (Piscataway, NJ, USA) with purity higher than 95%.
(§2) For determining the antimicrobial activity of the different peptides, the Middlebrook 7H9 broth microdilution method was used in sterile 96-well flat-bottom Greiner Bio-One polypropylene microplates with lid (Thermo Fisher Scientific) using the resazurin microtiter assay (REMA). Briefly, Mycobacterium abscessus was cultured up to mid log-phase (OD600 ~ 1.5–2) and diluted to a cell density of 5 × 10^6 cells/mL in 7H9-S^OADC. Then, 100 µL of this above inoculum was distributed to each well containing serial two-fold dilutions of arenicin, arenicin derivative or controls to a final volume of 200 µL. Growth controls containing no peptide (i.e., bacteria only = B), inhibition controls containing 50 µg/mL kanamycin (Euromedex, Souffelweyersheim, France) and sterility controls (i.e., medium only) without bacteria were included. After 5 days incubation at 37° C in a humidity chamber to prevent evaporation, 20 µL of a 0.025% (w/v) resazurin solution was added to each well. The microplate was re-incubated until appearance of a color change from blue to pink in the control well (i.e., bacteria without antibiotics). Fluorescence of the metabolite resorufin (λex/λem = 530/590 nm) was measured using a Tecan Spark 10 M ™ multimode microplate reader (Tecan Group Ltd, France). Relative fluorescence units (RFU) were defined as: RFU% = (test well FU/mean FU of control B wells) × 100. MIC50 and MIC90 values were determined by fitting the RFU% sigmoidal dose–response curves in Kaleidagraph 4.2 software (Synergy Software, Reading, PA). The concentration of peptide leading to 50% and 90% inhibition of M. abscessus growth was defined as the MIC50 and MIC90, respectively. All experiments were performed independently at least three times.

[2] = tested on: M. abscessus CIP 104536 T S variant; assay: microbe, parasite or virus in culture; assay type: cell-based, Mycobacterium abscessus
Protocol: as §1, §2

[3] = assay type: cell-based, human
Protocol: (§3) The toxicity of each peptide was evaluated on human cell lines using a resazurin assay as previously described. Human lung epithelial cells BEAS-2B (ATCC CRL-9609), liver cells HepG2 (ATCC HB-8065), and kidney cells A498 (ATCC HTB-44) were used. All cells were cultured in Dulbecco's modified essential medium (DMEM) supplemented with 10% heat-inactivated fetal calf serum (FBS, Thermo Fisher Scientific), and 1% L-glutamine (Thermo Fisher Scientific) (DMEM^FBS) at 37 °C in a 5% CO2 incubator to subconfluent concentrations. Cells were detached with trypsin–EDTA solution (Thermo Fisher Scientific), and around 1 × 10^4 cells/well were seeded in 96-well flat-bottom microplates (Greiner Bio-One) with a lid, and cultured for additional 48–72 h at 37 °C and 5% CO2 until cell confluence. The medium was removed, and 100 µL of serial two-fold dilutions of the peptides in DMEM^FBS were added to each well. Following a 48 h-incubation period at 37 °C and 5% CO2, cell viability was evaluated using the resazurin assay as described above. Fluorescence of the resazurin metabolite resorufin (λex/λem = 530/590 nm) was measured after 2 h incubation at 37 °C and 5% CO2 in the dark, with a microplate reader (Biotek, Synergy Mx, Colmar, France). The cytotoxic concentration of peptide leading to 50% cell death as compared to the control was defined as the CC50, and was determined by fitting the RFU% sigmoidal dose–response curves in Kaleidagraph 4.2 software (Synergy Software). All experiments were conducted in triplicate.

[4] = assay type: cell-based, human; remark: listed apart in the source
Protocol: as §3

[5] = Cytotoxic assay on human cells (resazurin); assay type: cell-based; settings: A498, 48 h exposure
Protocol: as §3

human erythrocytes = assay type: cell-based
Protocol: The hemolytic activity of each peptide was determined as previously described. Briefly, human erythrocytes (red blood cells, hRBC; Divbioscience, Ulvenhout, Netherlands) were washed 2-times with sterile phosphate buffered saline (PBS; Thermo Fisher Scientific) and pelleted by centrifugation at 800 rpm for 5 min; then resuspended in DMEM^FBS to a final erythrocyte concentration of 8% (v/v). Then, 100 µL of this hRBC solution was distributed to each well of sterile 96-well flat-bottom microplates (Greiner Bio-One) containing serial two-fold dilutions of arenicin, arenicin-Abu derivative or controls in DMEM^FBS to a final volume of 200 µL. After 1 h incubation at 37 °C, microplates were centrifuged at 800 rpm for 5 min. Then, 100 µL of supernatant were carefully transferred to a new 96-well microplate, and OD405 corresponding to the release of hemoglobin was measured using a microplate reader (Biotek, Synergy Mx, Colmar, France). DMEM^FBS and Triton-X100 at 0.1% (v/v) were used as negative (i.e., 0% hemolysis) and positive (i.e., 100% hemolysis) controls, respectively. The concentration of peptide leading to 10% and 50% of hemolysis compared to the positive control was defined as the HC10 and HC50, respectively, and was determined by fitting the dose–response curves in Kaleidagraph 4.2 software (Synergy Software). All experiments were done in triplicate.

[6] = Mycobacteroides abscessus, CIP104536, 120 h
[7] = S variant, 50% inhibition of in vitro growth, REMA, 5 days
[8] = S variant, 90% inhibition of in vitro growth, REMA, 5 days

SMILES	MIC50 [1, 6] [µM]	MIC90 [1, 6] [µM]	MIC50 [2, 6] [µM]	MIC90 [2, 6] [µM]	MIC50 [2, 7] [µM]	MIC90 [2, 8] [µM]	CC50 [3] [µM]	CC50 [4] [µM]	CC50 [5] [µM]	HC10 (human erythrocytes; red cells of human, 1 h) [µM]	HC50 (human erythrocytes; red cells of human, 1 h) [µM]	MIC50 ([1]; R variant, 50% inhibition of in vitro growth, REMA, 5 days) [µM]	MIC90 ([1]; R variant, 90% inhibition of in vitro growth, REMA, 5 days) [µM]	hemolytic activity on human erythrocytes (in words, considering HC10) (human erythrocytes)	HC50 (human erythrocytes) [µM]
NCC[C@H](O)C(=O)N[C@@H]1C[C@H](N)[C@@H](O[C@H]2O[C@H](CN)[C@@H](O)[C@H](O)[C@H]2O)[C@H](O)[C@H]1O[C@H]1O[C@H](CO)[C@@H](O)[C@H](N)[C@H]1O [AMK, amikacin, reference compound]	7.4 ± 0.26	10.1	3.9 ± 0.19	5.8	–	–	–	–	–	–	–	–	–	–	–
CC(C)[C@@H]1NC(=O)CNC(=O)[C@H](CC(N)=O)NC(=O)[C@H](CCCNC(=N)N)NC(=O)[C@H](Cc2ccc(O)cc2)NC(=O)[C@H](C(C)C)NC(=O)[C@@H]2CSSC[C@H](NC(=O)[C@H](C(C)C)NC(=O)[C@H](CCCNC(=N)N)NC1=O)C(=O)N[C@@H](Cc1ccc(O)cc1)C(=O)N[C@@H](CCCNC(=N)N)C(=O)N[C@@H](CCCNC(=N)N)C(=O)N[C@H](C(=O)N[C@@H](CC(N)=O)C(=O)O)CSSC[C@H](NC(=O)[C@H](Cc1ccccc1)NC(=O)CN)C(=O)N[C@@H](Cc1c[nH]c3ccccc13)C(=O)N[C@@H](Cc1ccc(O)cc1)C(=O)N[C@@H](C(C)C)C(=O)N2 [Ar-3] (H-GFCWYVCVYRNGVRVCYRRCN-OH; disulfide 3-20, 7-16)	–	–	–	–	5.3	12.2	> 100	> 100	46.7 ± 1.7	30.3 ± 2.5	> 100	–	–	–	–
CC[C@H](NC(=O)[C@H](CCCNC(=N)N)NC(=O)[C@H](CCCNC(=N)N)NC(=O)[C@H](Cc1ccc(O)cc1)NC(=O)[C@@H]1CSSC[C@H](NC(=O)[C@@H](NC(=O)[C@H](Cc2ccc(O)cc2)NC(=O)[C@H](Cc2c[nH]c3ccccc23)NC(=O)[C@H](CC)NC(=O)[C@H](Cc2ccccc2)NC(=O)CN)C(C)C)C(=O)N[C@@H](C(C)C)C(=O)N[C@@H](Cc2ccc(O)cc2)C(=O)N[C@@H](CCCNC(=N)N)C(=O)N[C@@H](CC(N)=O)C(=O)NCC(=O)N[C@@H](C(C)C)C(=O)N[C@@H](CCCNC(=N)N)C(=O)N[C@@H](C(C)C)C(=O)N1)C(=O)N[C@@H](CC(N)=O)C(=O)O [Ar-3(7–16)] (H-GF[Abu]WYVCVYRNGVRVCYRR[Abu]N-OH; disulfide 7-16)	–	–	–	–	–	–	> 100	> 100	37.7 ± 1.2	41.1 ± 4.3	> 100	–	–	–	–
CC[C@H](NC(=O)[C@H](CCCNC(=N)N)NC(=O)[C@H](CCCNC(=N)N)NC(=O)[C@H](Cc1ccc(O)cc1)NC(=O)[C@H](CCCNC(=N)N)NC(=O)[C@@H](NC(=O)[C@H](CC(C)C)NC(=O)[C@@H](NC(=O)CNC(=O)[C@H](CCCNC(=N)N)NC(=O)[C@@H](NC(=O)[C@H](CCCNC(=N)N)NC(=O)[C@@H](NC(=O)[C@H](Cc1ccc(O)cc1)NC(=O)[C@H](C)NC(=O)[C@H](Cc1ccc(O)cc1)NC(=O)[C@@H](NC(=O)[C@H](CC)NC(=O)[C@H](Cc1c[nH]c2ccccc12)NC(=O)[C@@H](N)CCCNC(=N)N)C(C)C)C(C)C)[C@@H](C)CC)C(C)C)C(C)C)C(=O)N[C@@H](Cc1c[nH]c2ccccc12)C(=O)O [Ar-2-Abu] (H-RW[Abu]VYAYVRIRGVLVRYRR[Abu]W-OH)	–	–	–	–	–	–	> 100	> 100	92.1 ± 2.3	15.4 ± 1.0	> 100	–	–	–	–
CC[C@H](NC(=O)[C@H](CCCNC(=N)N)NC(=O)[C@H](CCCNC(=N)N)NC(=O)[C@H](Cc1ccc(O)cc1)NC(=O)[C@H](CC)NC(=O)[C@@H](NC(=O)[C@H](CCCNC(=N)N)NC(=O)[C@@H](NC(=O)CNC(=O)[C@H](CC(N)=O)NC(=O)[C@H](CCCNC(=N)N)NC(=O)[C@H](Cc1ccc(O)cc1)NC(=O)[C@@H](NC(=O)[C@H](CC)NC(=O)[C@@H](NC(=O)[C@H](Cc1ccc(O)cc1)NC(=O)[C@H](Cc1c[nH]c2ccccc12)NC(=O)[C@H](CC)NC(=O)[C@H](Cc1ccccc1)NC(=O)CN)C(C)C)C(C)C)C(C)C)C(C)C)C(=O)N[C@@H](CC(N)=O)C(=O)O [Ar-3-Abu] (H-GF[Abu]WYV[Abu]VYRNGVRV[Abu]YRR[Abu]N-OH)	–	–	–	–	> 100	> 100	> 100	> 100	36.6 ± 0.9	39.3 ± 3.2	> 100	> 100	> 100	–	–
CC[C@@H]1NC(=O)[C@H](C(C)C)NC(=O)[C@H](CCCNC(=N)N)NC(=O)[C@H](C(C)C)NC(=O)CNC(=O)[C@H](CC(N)=O)NC(=O)[C@H](CCCNC(=N)N)NC(=O)[C@H](Cc2ccc(O)cc2)NC(=O)[C@H](C(C)C)NC(=O)[C@H](CC)NC(=O)[C@H](C(C)C)NC(=O)[C@H](Cc2ccc(O)cc2)NC(=O)[C@H](Cc2c[nH]c3ccccc23)NC(=O)[C@@H](NC(=O)[C@H](Cc2ccccc2)NC(=O)CN)CSSC[C@@H](C(=O)N[C@@H](CC(N)=O)C(=O)O)NC(=O)[C@H](CCCNC(=N)N)NC(=O)[C@H](CCCNC(=N)N)NC(=O)[C@H](Cc2ccc(O)cc2)NC1=O [Ar-3(3–20)] (H-GFCWYV[Abu]VYRNGVRV[Abu]YRRCN-OH; disulfide 3-20)	–	–	–	–	48.3	> 100	> 100	> 100	42 ± 1.3	> 100	> 100	–	–	totally inactive	–
CC[C@H](C)[C@@H]1NC(=O)[C@H](CCCNC(=N)N)NC(=O)[C@H](C(C)C)NC(=O)[C@H](Cc2ccc(O)cc2)NC(=O)[C@H](C)NC(=O)[C@H](Cc2ccc(O)cc2)NC(=O)[C@H](C(C)C)NC(=O)[C@@H](NC(=O)[C@H](Cc2c[nH]c3ccccc23)NC(=O)[C@@H](N)CCCNC(=N)N)CSSC[C@@H](C(=O)N[C@@H](Cc2c[nH]c3ccccc23)C(=O)O)NC(=O)[C@H](CCCNC(=N)N)NC(=O)[C@H](CCCNC(=N)N)NC(=O)[C@H](Cc2ccc(O)cc2)NC(=O)[C@H](CCCNC(=N)N)NC(=O)[C@H](C(C)C)NC(=O)[C@H](CC(C)C)NC(=O)[C@H](C(C)C)NC(=O)CNC(=O)[C@H](CCCNC(=N)N)NC1=O [Ar-2] (H-RWCVYAYVRIRGVLVRYRRCW-OH; disulfide 3-20)	–	–	–	–	–	–	> 100	> 100	37.7 ± 1.1	4.9 ± 0.7	–	–	–	–	29.2
